The values below come from patent publication US8309530B2, “Compositions and methods for modulating ghrelin-mediated conditions” (Washington State University, priority 2009, dated 2012).

Entries after “also recorded” stand apart in the source; their conditions may differ.

The test system of data set [1] is ghrelin KO mice. Description: obestatin replacement by osmotic minipump in ghrelin KO mice, fasting in cold environment. In kind it is in vivo. The source says:
Likewise, in addition to ghrelin, another product of the ghrelin gene is obestatin. The effects of obestatin on food intake and metabolism appear to be the opposite of those of ghrelin although the results are still inconclusive (2, 10-14). If obestatin has a leptin-like role in the regulation of metabolism, then decreased resistance to metabolic challenge in ghrelin KO mice could be explained by the lack of this hormone. Based on this idea, Applicants attempted to rescue the herein disclosed impaired phenotype by replacing obestatin in ghrelin KO mice. There are several potential ways to do this, although each has its own limitations. The effects of a single bolus injection of obestatin are limited by the half-life of the peptide (22±2 min). […] Because of those limitations, obestatin was replaced using osmotic minipumps. This method also has limitations. The minipumps are filled and implanted at least 10 days before the challenge to allow enough time for recovery and to carry out the experiment. The stability of obestatin in solution at body temperature for such extended time period is unknown. Moreover, some of the biological effects of obestatin show a bell-shaped dose-response relationship. […]
Body temperature data are expressed as difference from baseline in 10-min averages.

Data set [2] concerns ghrelin KO mice. Description: bolus injections of obestatin in ghrelin KO mice (preliminary data). Format: in vivo. Conditions: preliminary data (not shown). The text has this:
Likewise, in addition to ghrelin, another product of the ghrelin gene is obestatin. The effects of obestatin on food intake and metabolism appear to be the opposite of those of ghrelin although the results are still inconclusive (2, 10-14). If obestatin has a leptin-like role in the regulation of metabolism, then decreased resistance to metabolic challenge in ghrelin KO mice could be explained by the lack of this hormone. Based on this idea, Applicants attempted to rescue the herein disclosed impaired phenotype by replacing obestatin in ghrelin KO mice. There are several potential ways to do this, although each has its own limitations. The effects of a single bolus injection of obestatin are limited by the half-life of the peptide (22±2 min). […] Because of those limitations, obestatin was replaced using osmotic minipumps. This method also has limitations. The minipumps are filled and implanted at least 10 days before the challenge to allow enough time for recovery and to carry out the experiment. The stability of obestatin in solution at body temperature for such extended time period is unknown. Moreover, some of the biological effects of obestatin show a bell-shaped dose-response relationship. It is unknown whether the amount of obestatin released from the minipumps provides the optimal plasma levels or appropriate pulsatile or ultradian secretion patterns.

The test system of the next data set is ghrelin mRNA. Description: initial screening of ghrelin siRNAs using cultured cells: suppression of ghrelin mRNA in vitro. Format: cell-based, mouse. As for the experimental part: In certain preferred embodiments, baseline food intake for the 12-h light and dark period is measured over a 48-h time period in rats (n=16) that receive no treatment. On the third day, rats are separated randomly into two groups. One group of rats (n=8) is treated with scrambled ghrelin siRNA, the other group of rats receive ghrelin siRNA in the same volume administered orally by using an intragastric gavage. The dose and the specific siRNA is determined by an initial screening of ghrelin siRNAs using cultured cells. The siRNA that induces a significant suppression of ghrelin mRNA (for example, Applicants have shown that GGUUCAAUGCUCCCUUCGAtt (SEQ ID NO:17) suppressed ghrelin mRNA levels by 40% in vitro) compared to scrambled or saline control is, then, used in vivo. Food intake is measure before dark and light onset on each experimental day and for 5 additional days after the siRNA treatment. Body weight is monitored once a day. Additionally, rats are implanted with EEG and EMG electrodes for sleep-wake recordings.

As to obestatin, the “development of hypothermia / hypothermic response” value in the data set with ghrelin KO mice [1] (osmotic minipump, fasting day) is on record as “significantly attenuated; also recorded: significantly delayed”. Further, in the data set on ghrelin KO mice [1] (subcutaneous infusion of 300 nmol/kg/day for 10 days by osmotic minipump), the “entered hypothermia later than those that received saline” value is “about 6 hours”. Further, the “hypothermia in ghrelin KO mice” value in the data set on ghrelin KO mice [2] is recorded as “attenuated hypothermia”.

On to “SEQ ID NO:17: ghrelin siRNA (mouse), sequence GGUUCAAUGCUCCCUUCGAtt (GGUUCAAUGCUCCCUUCGATT; chemistry not given here)”, for which the “suppression of ghrelin mRNA levels” value in the data set on ghrelin mRNA is 40%.
